This note sets out measurements from patent US10973817B2, “Pharmaceutical compounds” (SENTINEL ONCOLOGY LIMITED, priority 2014, dated 2021).

Counter-ions that a name gives are not always drawn.

The IC50 is the concentration at which inhibition is half-maximal.

The target in this assay is Chk-1 kinase (Homo sapiens (Human), UniProt O14757). Nature of the assay: Chk-1 kinase inhibiting activity (33P-ATP filter-binding kinase assay). The assay is classed as biochemical. The conditions noted are these: against Chk-1 kinase; recombinant full length GST-tagged, 0.5 nM; CHKtide substrate 20 μM; 120 minutes at room temperature. The protocol: Chk-1 Kinase Inhibiting Activity
The compounds of the invention were tested for activity against Chk-1 kinase using the materials and protocols set out below.
Base Reaction buffer: 20 mM Hepes (pH 7.5), 10 mM MgCl2, 1 mM EGTA, 0.02% Brij35, 0.02 mg/ml BSA, 0.1 mM Na3VO4, 2 mM DTT, 1% DMSO • Required cofactors are added individually to each kinase reaction Reaction Procedure: (i) Prepare indicated substrate in freshly prepared Base Reaction Buffer (ii) Deliver any required cofactors to the substrate solution above (iii) Deliver indicated kinase into the substrate solution and gently mix (iv) Deliver compounds in DMSO into the kinase reaction mixture (v) Deliver ^33P-ATP (specific activity 0.01 μCi/μl final) into the reaction mixture to initiate the reaction. (vi) Incubate kinase reaction for 120 minutes at room temperature (vii) Reactions are spotted onto P81 ion exchange paper (Whatman #3698-915) (viii) Wash filters extensively in 0.1% phosphoric acid. (ix) Dry filters and measure counts in scintillation counter Kinase Information: CHK-1H—Genbank Accession # AF016582 Recombinant full length construct, N-terminal GST tagged, purified from insect cells. […]
From the results obtained by following the above protocol, the IC50 values against Chk-1 kinase of each of the compounds of Examples 1-153 were determined and these are shown in Table 3.

Chain of Chk-1 kinase (O14757 whole entry): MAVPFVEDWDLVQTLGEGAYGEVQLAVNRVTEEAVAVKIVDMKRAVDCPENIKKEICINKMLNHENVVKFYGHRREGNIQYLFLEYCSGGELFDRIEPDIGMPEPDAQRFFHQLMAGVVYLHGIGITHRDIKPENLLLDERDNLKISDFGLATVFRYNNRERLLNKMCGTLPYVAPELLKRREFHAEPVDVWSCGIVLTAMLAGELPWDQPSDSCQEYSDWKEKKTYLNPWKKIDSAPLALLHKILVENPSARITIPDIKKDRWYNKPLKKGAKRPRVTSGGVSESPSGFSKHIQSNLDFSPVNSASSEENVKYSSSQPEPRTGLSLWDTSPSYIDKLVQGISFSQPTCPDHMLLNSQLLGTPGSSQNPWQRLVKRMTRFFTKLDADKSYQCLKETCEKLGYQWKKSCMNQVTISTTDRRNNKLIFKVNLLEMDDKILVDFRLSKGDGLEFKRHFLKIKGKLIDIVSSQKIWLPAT

As to `COc1cc(CN2CC[C@@H](OC)C2)ccc1-c1cc(Nc2cnc(C#N)cn2)n[nH]1` [Example 125, 5-[[5-[2-methoxy-4-[[(3R)-3-methoxypyrrolidin-1H-yl]methyl]phenyl]-1H-pyrazol-3-yl]amino]pyrazine-2-carbonitrile, hydrochloride], the IC50 is 280 pM.
Under `COc1cc(CN2CC[C@H](OC)C2)ccc1-c1cc(Nc2cnc(C#N)cn2)n[nH]1` [Example 124, 5-[[5-[2-methoxy-4-[[(3S)-3-methoxypyrrolidin-1H-yl]methyl]phenyl]-1H-pyrazol-3-yl]amino]pyrazine-2-carbonitrile, hydrochloride] stands 250 pM.
